What all share (type): cell-based
The subject of one experiment is DENV2 replicon. In words: DENV-2 Huh-7 Rep EC50 (replicon luminescence). To be noted: Dengue virus, DENV2, Huh-7, 48 h, read-out: DENV-2 Huh-7 Rep EC50. The procedure, abridged: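 Huh-7 cells carrying a DENV2 replicon, 5,000 cells/well, were incubated with dosed compounds for 48 h at 37° C. EnduRen live-cell substrate was added 1.5 h before luminescence reading. EC50 came from dose-response against DMSO-only wells.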

For another experiment, the system named is HRV16. In words: HRV16 HELA EC50 (cytopathic effect in H1-HeLa cells). The procedure, abridged:
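H1-HeLa cells seeded one day before, given 3-fold serial compound dilutions in triplicate just prior to infection with pre-titrated virus. Incubated 96 h at 33 °C/5% CO2; protection from cytopathic effect read as viability by CellTiter-Glo luminescence, normalised to infected untreated (0%) and uninfected (100%) controls.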
On the technique in general: Damage to the host cells serves as the signal in cytopathic effect assays.

A further experiment deals with RSV A2. In words: RSV NHBE EC50 (RSV A2 antiviral assay in normal human bronchial epithelial cells). To be noted: human respiratory syncytial virus, 96 h, read-out: RSV NHBE EC50.
In a further experiment the test system is RSV strain A2. As to the kind of experiment: RSV HEp-2 EC50 (infectious cytopathic cell protection assay). The settings on record: human respiratory syncytial virus, read-out: RSV HEp-2 EC50. The procedure, abridged:
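HEp-2 cells mixed with titered RSV A2 at 50,000 cells/ml were added to plates holding 3-fold serial compound dilutions in DMSO, then incubated 4 days at 37° C. Cytoprotection was read as cell viability by CellTiter-Glo luminescence and converted to percent inhibition against 0% and 100% inhibition controls.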

The mark [1] stands for this setting: 96 h, H1-HeLa cells, 33° C., read-out: HRV16 HELA EC50.
Setting [2] is: NHBE, NHBE cells, RSV A2, 4 days.
Setting [3] is: HEp-2, 96 h, HEp-2 cells, RSV A2, 4 days.
[4] abbreviates: H1-HeLa cells, 96 h, 33° C.; read-out: HRV16 HELA EC50.
[5] abbreviates: 96 h, HEp-2 cells, RSV A2, 4 days.

For 15 molecules, EC50 results are on record in patent publication US20230295201A1 (Gilead Sciences, Inc., priority 2020, published 2023).

A word on the EC50: it is the midpoint of the concentration-response curve.

Read-outs that look alike come from different tables or passages of the source. Bounds are passed on as bounds.

Regarding `CCC(CC)COC(=O)[C@H](Cc1ccccc1)NP(=O)(OC[C@@]1(C#N)O[C@@H](c2ccc3c(N)ncnn23)[C@H](O)[C@@H]1O)Oc1ccccc1` (stereo partly drawn) [Example 81, (2S)-2-ethylbutyl 2-(((((2R,3S,4R,5S)-5-(4-aminopyrrolo[2,1-f][1,2,4]triazin-7-yl)-2-cyano-3,4-dihydroxytetrahydrofuran-2-yl)methoxy)(phenoxy)phosphoryl)amino)-3-phenylpropanoate], the EC50 with DENV2 replicon (Huh-7 replicon cells, 48 hours) worked out at 38.9 µM; in the experiment with HRV16 (setting [1]), 3.37 µM; in the experiment on RSV A2 (setting [2]), 2.65 µM; with RSV strain A2 (setting [3]), 3.57 µM.
For the molecule `C[C@H](NP(=O)(OC[C@@]1(C#N)O[C@@H](c2ccc3c(N)ncnn23)[C@H](O)[C@@H]1O)Oc1ccccc1)C(=O)OC1CCC1` (stereo partly drawn) [Example 118, (2S)-cyclobutyl 2-(((((2R,3S,4R,5S)-5-(4-aminopyrrolo[2,1-f][1,2,4]triazin-7-yl)-2-cyano-3,4-dihydroxytetrahydrofuran-2-yl)methoxy)(phenoxy)phosphoryl)amino)propanoate], the EC50 in the experiment with DENV2 replicon (Huh-7 replicon cells, 48 hours) turned out to be 27 µM; in the experiment on HRV16 (setting [1]) it was 0.424 µM; with RSV A2 (setting [2]) it was 0.316 µM; in the experiment with RSV strain A2 (setting [3]), 0.214 µM.
Regarding `CCC(CC)COC(=O)[C@H](C)NP(=O)(N[C@@H](C)C(=O)OCC(C)(C)C)OC[C@@]1(C#N)O[C@@H](c2ccc3c(N)ncnn23)[C@H](O)[C@@H]1O` (stereo partly drawn) [Example 200, 2-ethylbutyl ((((2R,3S,4R,5S)-5-(4-aminopyrrolo[2,1-f][1,2,4]triazin-7-yl)-2-cyano-3,4-dihydroxytetrahydrofuran-2-yl)methoxy)(((S)-1-(neopentyloxy)-1-oxopropan-2-yl)amino)phosphoryl)-L-alaninate], the EC50 in the experiment on DENV2 replicon is above 50 µM; in the experiment with HRV16 (setting [4]) it was 5.68 µM; in the experiment on RSV A2 (NHBE cells, RSV A2, 4 days) it was 0.125 µM; in the experiment with RSV strain A2 (setting [5]) it was 1.4 µM.
The corresponding values for `C=CCO[C@H](COCCCCCCCCCCCCCCCCCC)COP(=O)(O)OC[C@@]1(C#N)O[C@@H](c2ccc3c(N)ncnn23)[C@H](O)[C@@H]1O` [Example 167, (R)-2-(allyloxy)-3-(octadecyloxy)propyl (((2R,3S,4R,5S)-5-(4-aminopyrrolo[2,1-f][1,2,4]triazin-7-yl)-2-cyano-3,4-dihydroxytetrahydrofuran-2-yl)methyl) hydrogen phosphate] are above 100 µM, 12 µM, 0.359 µM and 0.647 µM.
As for `C[C@H](NP(=O)(OC[C@@]1(C#N)O[C@@H](c2ccc3c(N)ncnn23)[C@H](O)[C@@H]1O)Oc1ccccc1)C(=O)OC[C@H]1CC[C@H](N)CC1` (stereo partly drawn) [Example 210, ((1r,4S)-4-aminocyclohexyl)methyl ((((2R,3S,4R,5S)-5-(4-aminopyrrolo[2,1-f][1,2,4]triazin-7-yl)-2-cyano-3,4-dihydroxytetrahydrofuran-2-yl)methoxy)(phenoxy)phosphoryl)-L-alaninate], the EC50 in the experiment on DENV2 replicon (Huh-7 replicon cells, 48 hours) was above 50 µM; in the experiment on HRV16 (setting [1]), 27.9 µM; in the experiment on RSV A2 (setting [2]), 3.02 µM; in the experiment on RSV strain A2 (setting [3]) it was 1.78 µM.
For `CCOC(=O)[C@H](Cc1ccccc1)NP(=O)(OC[C@@]1(C#N)O[C@@H](c2ccc3c(N)ncnn23)[C@H](O)[C@@H]1O)Oc1ccccc1` (stereo partly drawn) [Example 3, (2S)-ethyl 2-(((((2R,3S,4R,5S)-5-(4-aminopyrrolo[2,1-f][1,2,4]triazin-7-yl)-2-cyano-3,4-dihydroxytetrahydrofuran-2-yl)methoxy)(phenoxy)phosphoryl)amino)-3-phenylpropanoate] the same measures were above 100 µM, 8.96 µM, 1.69 µM and 4.09 µM.
For `C[C@H](NP(=O)(OC[C@@]1(C#N)O[C@@H](c2ccc3c(N)ncnn23)[C@H](O)[C@@H]1O)Oc1ccccc1)C(=O)OC1CCCC(C)(C)C1` (mixture of isomers) [Example 154, 3,3-dimethylcyclohexyl ((((2R,3S,4R,5S)-5-(4-aminopyrrolo[2,1-f][1,2,4]triazin-7-yl)-2-cyano-3,4-dihydroxytetrahydrofuran-2-yl)methoxy)(phenoxy)phosphoryl)-L-alaninate] the same measures were 50.7 µM, 1.95 µM, 0.311 µM and 2.7 µM.
For `C[C@H](N[P@@](=O)(OC[C@@]1(C#N)O[C@@H](c2ccc3c(N)ncnn23)[C@H](O)[C@@H]1O)Oc1ccccc1)C(=O)O[C@H]1CC[C@H](C(F)(F)F)CC1` (single isomer, unassigned) [Example 17] the same measures were 53.7 µM, 0.489 µM, 0.088 µM and 0.308 µM.
For the molecule `C[C@H](NP(=O)(OC[C@@]1(C#N)O[C@@H](c2ccc3c(N)ncnn23)[C@H](O)[C@@H]1O)Oc1ccccc1)C(=O)OCC1CCOCC1` (stereo partly drawn) [Example 20, (tetrahydro-2H-pyran-4-yl)methyl ((((2R,3S,4R,5S)-5-(4-aminopyrrolo[2,1-f][1,2,4]triazin-7-yl)-2-cyano-3,4-dihydroxytetrahydrofuran-2-yl)methoxy)(phenoxy)phosphoryl)-L-alaninate], the EC50 with DENV2 replicon (Huh-7 replicon cells, 48 hours) was above 50 µM; in the experiment with HRV16 (setting [1]), 4.88 µM; in the experiment with RSV A2 (setting [2]), 2.23 µM; in the experiment on RSV strain A2 (setting [3]) it was 0.877 µM.
Take `CCC(CC)COC(=O)[C@H](CC)NP(=O)(N[C@@H](CC)C(=O)OCC(CC)CC)OC[C@@]1(C#N)O[C@@H](c2ccc3c(N)ncnn23)[C@H](O)[C@@H]1O` [Example 220]: the 50% effective concentration (EC50) with DENV2 replicon is 29 µM; in the experiment on HRV16 (setting [4]), 10.6 µM; with RSV A2 (NHBE cells, RSV A2, 4 days) it was 0.34 µM; in the experiment with RSV strain A2 (setting [5]), 4.26 µM.
Consider `C[C@H](NP(=O)(OC[C@@]1(C#N)O[C@@H](c2ccc3c(N)ncnn23)[C@H](O)[C@@H]1O)Oc1ccccc1)C(=O)O[C@H]1CCN(C)C1` (stereo partly drawn) [Example 15, (S)-1-methylpyrrolidin-3-yl ((((2R,3S,4R,5S)-5-(4-aminopyrrolo[2,1-f][1,2,4]triazin-7-yl)-2-cyano-3,4-dihydroxytetrahydrofuran-2-yl)methoxy)(phenoxy)phosphoryl)-L-alaninate], for which the concentration for a half-maximal effect (EC50) with DENV2 replicon (Huh-7 replicon cells, 48 hours) was above 50 µM; with HRV16 (setting [1]), 11.4 µM; in the experiment on RSV A2 (setting [2]) it was 3.25 µM; in the experiment with RSV strain A2 (setting [3]), 4.33 µM.
The corresponding values for `CCOC(=O)[C@H](CCCCNC(C)=O)NP(=O)(OC[C@@]1(C#N)O[C@@H](c2ccc3c(N)ncnn23)[C@H](O)[C@@H]1O)Oc1ccccc1` (mixture of isomers) [Example 85, (2S)-ethyl 6-acetamido-2-(((((2R,3S,4R,5S)-5-(4-aminopyrrolo[2,1-f][1,2,4]triazin-7-yl)-2-cyano-3,4-dihydroxytetrahydrofuran-2-yl)methoxy)(phenoxy)phosphoryl)amino)hexanoate] are above 50 µM, above 50 µM, above 5 µM and above 46.7 µM.
The corresponding values for `CC(C)OC(=O)[C@H](C)N[P@](=O)(OC[C@@]1(C#N)O[C@@H](c2ccc3c(NC(=O)C(C)C)ncnn23)[C@H](O)[C@@H]1O)Oc1ccccc1` [Example 234, isopropyl ((S)-(((2R,3S,4R,5S)-2-cyano-3,4-dihydroxy-5-(4-isobutyramidopyrrolo[2,1-f][1,2,4]triazin-7-yl)tetrahydrofuran-2-yl)methoxy)(phenoxy)phosphoryl)-L-alaninate] are 36.4 µM, 6.87 µM, 2.41 µM and 0.696 µM.
For `CC(C)OC(=O)[C@H](C)N[P@](=O)(OC[C@@]1(C#N)O[C@@H](c2ccc3c(N)ncnn23)[C@@H]2OC(=O)O[C@@H]21)Oc1ccccc1` [Example 236, isopropyl ((S)-(((3aS,4R,6S,6aS)-6-(4-aminopyrrolo[2,1-f][1,2,4]triazin-7-yl)-4-cyano-2-oxotetrahydrofuro[3,4-d][1,3]dioxol-4-yl)methoxy) (phenoxy)phosphoryl)-L-alaninate] the same measures were 17.9 µM, 0.741 µM, 0.949 µM and 0.189 µM.
Take `CCOC(=O)C1CCCN1P(=O)(OC[C@@]1(C#N)O[C@@H](c2ccc3c(N)ncnn23)[C@H](O)[C@@H]1O)Oc1ccccc1` (stereo in doubt) [Example 117, (2R)-ethyl 1-((((2R,3S,4R,5S)-5-(4-aminopyrrolo[2,1-f][1,2,4]triazin-7-yl)-2-cyano-3,4-dihydroxytetrahydrofuran-2-yl)methoxy)(phenoxy)phosphoryl)pyrrolidine-2-carboxylate]: the EC50 with DENV2 replicon was above 100 µM; with HRV16 (96 h, read-out: HRV16 HELA EC50) it was above 100 µM; with RSV A2 (NHBE) it was above 5 µM; with RSV strain A2 (HEp-2, 96 h) it was above 100 µM.
